Test results taken from US8367319B2, “Methods and compositions for the identification of antibiotics that are not susceptible to antibiotic resistance” (Wayne State University, priority 2002, dated 2013).
Values after ≈ are worked out from the molar mass of the structure shown. Where two headings read alike, the source gives them in different places.

Legend:
E. coli DH5 [1] = assay: Minimum inhibitory concentration (MIC) of chloramphenicol for cells expressing plasmid-derived ribosomes (CAT reporter); type: cell-based; settings: for MIC: Escherichia coli
E. coli DH5 [2] = assay: as above; type: cell-based; settings: for MIC: Escherichia coli; remark: listed apart in the source
Protocol: Bacterial strains and media. All plasmids were maintained and expressed in E. coli DH5 (supE44, hsdR17, recA1, endA1, gyrA96, thi-1 and relA1) (36). To induce synthesis of plasmid-derived rRNA from the lacUV5 promoter, IPTG was added to a final concentration of 1 mM. Chloramphenicol acetyltransferase activity was determined essentially as described by Nielsen et al. (1989) Anal. Biochem. 179: 19-23. Cultures for CAT assays were grown in LB-Ap100. MIC were determined by standard methods in microtiter plates as described in Lee, K., et al. (1997) J. Mol. Biol. 269: 732-743.
Minimum inhibitory concentration determination. MICs were determined by standard methods in microtiter plates or on solid medium. Overnight cultures grown in LB-Ap100 were diluted and induced in the same medium containing 1 mM IPTG for three hours. Approximately 10^4 induced cells were then added to wells (or spotted onto solid medium) containing LB-Ap100+ IPTG (1 mM) and chloramphenicol at increasing concentrations.

In the case of `O=C(N[C@H](CO)[C@H](O)c1ccc([N+](=O)[O-])cc1)C(Cl)Cl` [chloramphenicol], the MIC (E. coli DH5 [1]; DH5, pRNA122 (specialized ribosomes), uninduced, read-out: background chloramphenicol MIC) is reported as 40 to 50 µg/mL (≈ 124 to 155 µM), the MIC (E. coli DH5 [1]; DH5, uninduced cells containing pRNA100 (FIG. 13), read-out: MIC of chloramphenicol) is reported as 100 µg/mL and the Chloramphenicol resistance (E. coli DH5 [1]; uninduced cells containing pRNA100) is reported as 75 µg/mL. For the same compound, the MIC (E. coli DH5 [2]; DH5, 451 of 536 selected MBS-RBS isolates (84.1%), in the presence of inducer, read-out: MIC of chloramphenicol) was 400 to 600 µg/mL, the MIC (E. coli DH5 [2]; DH5, 24 h, cells expressing wild-type rRNA from pRNA122 (unmutated control), induced with 1 mM IPTG, 24 hours, read-out: MIC of chloramphenicol) was 600 µg/mL and the MIC (E. coli DH5 [2]; DH5, 24 h, nine slow growing MBS-RBS isolates (1.7%), in the presence of inducer, scored after 24 hours, read-out: MIC of chloramphenicol) was under 350 µg/mL. The MIC (E. coli DH5 [2]; DH5, pRNA122 (specialized ribosomes), induced cells, read-out: MIC of chloramphenicol) was 550 to 600 µg/mL, the MIC (E. coli DH5 [2]; DH5, read-out: MIC of chloramphenicol, mean over mutants, cells expressing 78 functional 790-loop mutants in pRNA122, standard deviation 89) was 320 µg/mL and the MIC (E. coli DH5 [2]; DH5, read-out: MIC of chloramphenicol, median and mode over mutants, cells expressing 78 functional 790-loop mutants in pRNA122) was 350 µg/mL. The MIC (E. coli DH5 [2]; DH5, read-out: MIC of chloramphenicol, remaining 76 selected MBS-RBS clones (14.2%), in the presence of inducer) was 600 µg/mL, the “chloramphenicol concentration to which cells are sensitive” value (E. coli DH5 [2]; pRNA122 + wt MBS: CAT message translated by wild-type ribosomes) was under 10 µg/mL and the “MIC of chloramphenicol, range over mutants” value (E. coli DH5 [2]; {}) was 150 to 550 µg/mL.
